The values below come from PMC12333015, “Profiling the Impact of mGlu7/Elfn1 Protein Interactions on the Pharmacology of mGlu7 Allosteric Modulators” (ACS Chemical Neuroscience, 2025).

The EC50 is the concentration giving half of the maximal effect. A high value points to a less potent agent.

One experiment has as its target T1, rat mGlu7 (Rattus norvegicus, UniProt P35400).
T1 construct: expressed in transfected cells; host or cells: HEK293A cells stably expressing mGlu7 and GIRK1/2
Put plainly: Thallium flux assay, mGlu7/GIRK HEK293 cells cocultured with pcDNA3 vector control cells. The format is cell-based. As to conditions: L-AP4 pEC50 ± SEM, pcDNA, DMSO vehicle. From the text:
We began our evaluation of mGlu7 ligands in the presence and absence of Elfn1 by using a coculture system as previously described , with several modifications (Figure ). Cells expressing rat mGlu7 and coexpressing G protein inwardly rectifying potassium (GIRK) channels 1 and 2 were cocultured with cells expressing either an empty pcDNA3 vector control or a plasmid containing Elfn1 in the pcDNA3 backbone. We then evaluated the activity of the orthosteric agonist L-AP4 and measured effects on maximal response and pEC50. All responses were normalized to the maximal effect of L-AP4 in the presence of the pcDNA3 control plasmid.
2 Assay design and workflow. (Left panel) Cells expressing rat mGlu7/GIRK (pink) were cocultured with pcDNA3 (blue) or Elfn1 (purple). […] (Right panel) The effect on the concentration–response curve in the presence (purple) or absence (blue) of Elfn1 can be seen by a change in efficacy, potency, and/or basal response.
HEK293A cells stably expressing mouse Elfn1 or pcDNA3 were maintained in growth medium containing 90% Dulbecco’s Modified Eagle Media (DMEM), 10% fetal bovine serum (FBS), 100 units/mL penicillin/streptomycin, 20 mM HEPES, 1 mM sodium pyruvate, 2 mM L-glutamine, 1× nonessential amino acids, and 700 μg/mL G418 sulfate. HEK mGlu7/GIRK cells were maintained in a growth medium with 90% DMEM/F12, 10% dialyzed FBS, 100 units/mL penicillin/streptomycin, 20 mM HEPES, 1 mM sodium pyruvate, 2 mM L-glutamine, 1× nonessential amino acids, 700 μg/mL G418 sulfate, and 600 ng/mL puromycin. All cell culture reagents were purchased from Invitrogen (Carlsbad, CA).
Thallium flux assays were performed as previously described. A mixture of HEK293A mGlu7/GIRK cells and pcDNA3 or Elfn1-expressing HEK293A cells (5000/15,000 cells/20 μL/well for agonist and PAM experiments; 7500/15,000 cells/20 μL/well for NAM experiments) was seeded in 384-well, amine-coated assay plates (Greiner Bio-One, Monroe, NC). Cells were incubated overnight in a humidified 5% CO2 cell culture incubator at 37 °C. […] Following a 1 h incubation at room temperature, the dye loading solution was replaced with 20 μL/well assay buffer and the plates were loaded into a Hamamatsu FDSS 7000 (Bridgewater, NJ). […] Thallium flux data were analyzed by first dividing each point in each wave by the first point in that wave and then subtracting the average of the vehicle control response. The slopes of these vehicle control-subtracted waves were calculated over ten data points beginning 2 s after thallium stimulus addition and fit to a three-parameter logistic equation in GraphPad Prism (La Jolla, CA). In most cases, the final data were normalized to the response of the mGlu7/pcDNA3 with vehicle and 5 mM L-AP4 unless otherwise noted. Potency (pEC50) and maximum responses (E max) induced by compounds were determined using a four-parameter logistical equation in Prism. Basal activity was calculated with data points at the three lowest test concentrations. Maximum activity was calculated with data points at two highest concentrations. All experiments were replicated at least three times in duplicate or triplicate.

In experiment [1] the test system is pyramidal cell to SST-IN synapses in the prefrontal cortex. The experiment in a line: Ex vivo whole-cell electrophysiology, eEPSCs recorded from SST-INs in prefrontal cortex slices. In kind it is cell-based, mouse. The conditions noted are these: 30 μM L-AP4 alone, bath applied. The source says: Shown in Figure A are representative traces of eEPSCs recorded from SST-INs in response to 5-pulse stimulation with baseline in black, illustrating the characteristic facilitating nature of pyramidal cell (PYR) to SST-IN synapses.
Transgenic mice (both male and female) expressing tdTomato fluorescent protein in SST-INs were used in this study. They were generated by crossing female homozygous SST-Cre (Sst^tm2.1(cre)Zjh/J, Stock #: 013044, Jackson Laboratories) with male homozygous Ai9 mice (B6;Cg-Gt(Rosa)-26Sor^tm9(CAG‑tdTomato)Hze/J, Stock #: 007909, Jackson Laboratories). All animals were group housed with food and water available ad libitum, kept under a 12 h light/dark cycle with lights on from 6:00 AM to 6:00 PM, and were used for experiments during the light phase. All of the experimental procedures were approved by the Vanderbilt University Animal Care and Use committee and followed the guidelines set forth by the Guide for the Care and Use of Laboratory Animals. […] Whole cell recordings were made from visually identified, fluorescence-labeled SST-INs in layer V of PFC slices under the upright microscope. […] Excitatory postsynaptic currents (EPSCs) were recorded from layer V SST-INs at a holding potential of −80 mV and evoked by electrical stimulation (100 μs duration, applied every 15 s) through a concentric bipolar stimulating electrode placed around 100–150 μm from the recorded cell. The holding potential of −80 mV under voltage clamp is closed to the calculated reversal potential of Cl^– and thus the EPSCs recorded in the present studies had minimal GABAA-mediated component. Electrical stimulation applied near the recorded cell in the cortex presumably activates the local neurons preferentially. […] Data were analyzed using Clampfit 10 (Molecular Devices), Excel (Microsoft), and Prism (GraphPad Software), and presented as mean ± SEM. […]

T1 sequence (P35400 35-915): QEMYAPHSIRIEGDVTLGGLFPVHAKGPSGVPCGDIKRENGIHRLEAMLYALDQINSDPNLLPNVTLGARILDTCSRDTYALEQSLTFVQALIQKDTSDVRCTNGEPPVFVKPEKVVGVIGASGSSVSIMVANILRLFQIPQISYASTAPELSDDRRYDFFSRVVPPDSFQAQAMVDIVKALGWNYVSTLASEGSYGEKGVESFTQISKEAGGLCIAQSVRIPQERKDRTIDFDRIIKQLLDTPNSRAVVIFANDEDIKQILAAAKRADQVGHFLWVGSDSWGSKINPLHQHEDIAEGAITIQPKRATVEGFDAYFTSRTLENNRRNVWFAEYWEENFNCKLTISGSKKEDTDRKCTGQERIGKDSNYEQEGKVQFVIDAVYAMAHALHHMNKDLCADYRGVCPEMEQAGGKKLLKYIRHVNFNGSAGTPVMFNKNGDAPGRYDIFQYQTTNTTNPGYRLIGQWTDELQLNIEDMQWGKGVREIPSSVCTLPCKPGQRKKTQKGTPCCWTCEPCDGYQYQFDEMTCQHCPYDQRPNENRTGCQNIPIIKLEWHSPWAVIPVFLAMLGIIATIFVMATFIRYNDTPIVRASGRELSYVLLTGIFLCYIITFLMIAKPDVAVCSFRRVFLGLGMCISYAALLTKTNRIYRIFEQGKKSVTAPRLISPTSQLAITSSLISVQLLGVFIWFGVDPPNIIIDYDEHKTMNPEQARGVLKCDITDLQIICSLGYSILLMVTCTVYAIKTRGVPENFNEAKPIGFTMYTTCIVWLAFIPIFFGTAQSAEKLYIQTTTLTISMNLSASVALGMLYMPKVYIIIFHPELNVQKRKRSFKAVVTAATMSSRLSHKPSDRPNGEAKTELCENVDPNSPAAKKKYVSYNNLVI

Consider `N[C@@H](CCP(=O)(O)O)C(=O)O` [L-AP4, L-2-amino-4-phosphonobutyric acid, reference compound], for which the EC50 at rat mGlu7 (agonist alone (DMSO row of Table 2)) was 195 µM; at rat mGlu7 (agonist alone (DMSO row of Table S1)), 240 µM. The “effect on eEPSC amplitude” value in experiment [1] was “reduced eEPSC amplitude”.
